# Laboratory results reported in patent publication US9265766B2, “Methods for altering mRNA splicing and treating familial dysautonomia by administering benzyladenine” (The General Hospital Corporation, priority 2003, dated 2016).
# “Also recorded” adds a separate entry of the source. Read-outs that look alike come from different tables or passages of the source.
# Assays:
# [1] = system: IKBKAP splicing (WT:MU IKBKAP mRNA); experiment: WT:MU IKBKAP mRNA ratio by RT-PCR (IDV) in FD lymphoblast cell lines; drug screen; format: cell-based, human; details: for correct IKBKAP splicing / production of wild-type IKBKAP transcript in FD cells: 10 μM compound in DMSO, 72 hours, FD lymphoblast cell line
# Protocol: Drug Screen. The panel of 1040 independent compounds used was specifically designed for the NINDS sponsored Neurodegeneration Drug Screening Consortium (MicroSource Discovery Systems). A single FD lymphoblast cell line was cultured in 24 well format and treated with 10 μM compound dissolved in DMSO for 72 hours. RNA was extracted using Tri-Reagent™ (Molecular Research Center) and reverse transcription and IKBKAP PCR was performed as previously described^4.
# An assay that provides stable and consistent measurement of the ratio of WT:MU FD IKBKAP mRNA splice products in lymphoblast cell lines was developed^4. This assay was employed as part of the Neurodegeneration Drug Screening Consortium′ to identify compounds that increase the relative production of WT mRNA. A single, standard FD lymphoblast cell line was assayed after 72 hours in the presence of 10 μM test drug, using compounds dissolved in DMSO.
# [2] = system: rat liver and kidney tissue; details: in vivo, po; cited from earlier work
# [3] = system: MYO5A exon 31 splicing; details: reference 13; cited from earlier work
# [4] = system: SMN2 exon 7; details: cited from earlier work
# [5] = system: IKBKAP WT:MU transcript ratio; experiment: IKBKAP nonsense mediated decay analysis (cycloheximide) in FD lymphoblast cell lines; format: cell-based, human; details: 50 μg/ml cycloheximide, four hours, FD cells
# Protocol: RT-PCR amplification and fractionation of the amplified product on a 1.5% agarose gel was performed on cell extracts. WT:MU IKBKAP transcript ratios were determined using the integrated density value (IDV) obtained for each band and are shown beneath each lane. Primer sequences and PCR conditions have been previously described^4
# Cell Culture and Treatment.
# The IVS20^+6T→C mutation in IKBKAP leads to a frameshift and a premature termination codon in exon 21, which is expected to target the mutant transcript for decay via the nonsense-mediated mRNA decay (NMD) pathway^15. […] FD cells were exposed to cycloheximide, a translation inhibitor, to inhibit NMD of the mutant transcript^16.
# [6] = system: IKBKAP mRNA (WT, MU, total); experiment: Real-time quantitative PCR of IKBKAP transcripts in FD lymphoblast cells; format: cell-based, human; details: doses higher than 50 μM (data not shown)
# [7] = system: IKAP protein; experiment: Western blot of IKAP protein in FD lymphoblast cell lines; format: cell-based, human; details: increasing concentrations of kinetin, 72 hours, FD lymphoblast cells
# From the text: Western Blot Analysis. […] Extracted protein was run on a 6% polyacrylamide gel. The samples were transferred to nitrocellulose and stained with Ponceau-S to visualize protein loading. IKAP was detected using a monoclonal antibody raised against amino acids 796-1008 of IKAP (BD Bioscience) that detects the 150 kD full-length IKAP protein. The same blot was probed with an antibody to insulin-degrading enzyme (IDE) as a protein loading control. Bands were quantitated using an Alpha 2000™ Image Analyzer.
# [8] = system: FD lymphoblast cells; experiment: Cellular toxicity in FD lymphoblast cells; format: cell-based, human; details: 400 μM
# Protocol: By contrast, total IKBKAP mRNA was relatively unaffected, with a slight increase (˜1.5 fold) being detected only at doses higher than 50 μM (data not shown).
# [9] = system: FD (MU) IKBKAP minigene exon 20; experiment: IKBKAP minigene splicing assay, FD (MU) construct in HEK293 cells; format: cell-based, human; details: RT-PCR with T7 and BGH-R
# Protocol: (§1) In Vivo IKBKAP Minigene Splicing Assay. IKBKAP genomic DNA was amplified from an unaffected and an FD individual using primers in exon 19 and 21: EX19F-5′-[…] (SEQ ID NO:6) and EX21R-5′-[…] (SEQ ID NO:7). The amplified products were cloned into pcDNA3.1/V5-His Topo (Invitrogen) and sequenced for verification. […] Minigene constructs were transiently transfected 12 hours later using Genejuice (Novagen) as directed by the manufacturer. After 48 hours RNA was isolated using the RNAeasy kit (Qiagen) and reverse transcribed using Superscript™ II reverse transcriptase (Invitrogen) as described^4. PCR was performed using vector specific primers: T7 ([…]) (SEQ ID NO:8) and BGHR ([…]) (SEQ ID NO:9), which amplify both WT and MU transcripts, or the MU specific primer EX19/21F ([…]) (SEQ ID NO:10) and BGH-R to specifically amplify only MU transcripts. PCR was performed as follows: 26 cycles of [94° C., 30 s; 56° C., 30 s; 72° C., 30 s] and products resolved on a 1.5% agarose gel and visualized by ethidium bromide staining.
# (§2) These constructs were transfected into HEK293 cells and RNA was amplified using vector-specific primers to avoid amplification of the endogenous IKBKAP message. […] Introduction of the FD mutation into the construct increased exon 20 skipping as predicted.
# [10] = system: WT IKBKAP minigene exon 20; experiment: IKBKAP minigene splicing assay, WT construct in HEK293 cells; format: cell-based, human; details: for inclusion of exon 20, WT minigene construct: RT-PCR with T7 and BGH-R
# Protocol: as §1, §2
# [11] = system: NF1 minigene (exons 35 to 37, C>T at 6724); experiment: NF1 minigene splicing assay in HEK293 cells; format: cell-based, human; details: HEK293 cells transfected with NF1 minigene, with vs without kinetin
# Protocol: NF1 genomic DNA was amplified from an unaffected and an NF1 individual using primers at the 5′ end of exon 35 and the 3′ end of exon 37. […] The amplified products were cloned into pcDNA3.1/V5-His Topo (Invitrogen) and sequenced for verification. […] Minigene constructs were transiently transfected 12 hours later using Genejuice (Novagen) as directed by the manufacturer. After 48 hours RNA was isolated using the RNAeasy kit (Qiagen) and reverse transcribed using Superscript™ II reverse transcriptase (Invitrogen) as described^4. PCR was performed using vector specific primers: T7 ([…]) (SEQ ID NO:8) and BGHR ([…]) (SEQ ID NO:9), which amplify both WT and MU transcripts. PCR was performed as follows: 30 cycles of [94° C., 30 s; 58° C., 30 s; 72° C., 30 s] and products resolved on a 1.5% agarose gel and visualized by ethidium bromide staining.
# [12] = system: human skin fibroblasts; details: cultured human skin fibroblasts; cited from earlier work
smiles,measurement,setting,value
"CC(C)=CCNc1ncnc2nc[nH]c12 [2iP, 6-(γ,γ-dimethyallylamino)purine, reference compound]",effect on WT:MU IKBKAP ratio,"[1]; FD lymphoblast assay, tested at 1, 10, 50 and 100 μM",neither zeatin nor 2iP (dissolved in DMSO at 10 mM) had any effect
"O=C(O)Cc1c[nH]c2ccccc12 [IAA, indoleacetic acid, reference compound]",lipid peroxidation in liver and kidney tissue,[2],resulting in lipid peroxidation synthesis
"CC[C@@]1(O)C[C@H](O[C@H]2C[C@H](N(C)C)[C@H](O[C@H]3C[C@H](O)[C@H](O[C@H]4CCC(=O)[C@H](C)O4)[C@H](C)O3)[C@H](C)O2)c2c(cc3c(c2O)C(=O)c2c(O)cccc2C3=O)[C@H]1C(=O)OC [aclarubicin, reference compound]",correct IKBKAP splicing / production of wild-type IKBKAP transcript in FD cells,[1],no effect on IKBKAP splicing
same,inclusion of alternatively spliced exons in MYO5A (literature),[3],neither of these drugs promotes inclusion
same,effect on exon 7 of SMN2,[4],can promote the inclusion of exon 7
"c1ccc(CNc2ncnc3nc[nH]c23)cc1 [benzyladenine, 6-benzylaminopurine]",enhancement of inclusion of exon 20 in IKBKAP transcripts,"[1]; by 100 μM, FD lymphoblast assay",approximately 2 fold
C[C@@H]1C[C@@H]([C@H](O)CC2CC(=O)NC(=O)C2)C(=O)[C@@H](C)C1 [cycloheximide],"WT:MU IKBKAP transcript ratio, cycloheximide alone",[5],decreasing the WT:MU transcript ratio
"c1coc(CNc2ncnc3nc[nH]c23)c1 [kinetin, 6-furfurylaminopurine]",correct IKBKAP splicing / production of wild-type IKBKAP transcript in FD cells,[1],dramatically enhanced correct splicing
same,correct IKBKAP splicing / production of wild-type IKBKAP transcript in FD cells,[1]; listed as Kinetin,significantly increases production of wild-type IKBKAP transcript
same,MU IKBKAP band by densitometry,"[1]; 100 μM kinetin, RT-PCR gel",barely discernable
same,increase in total IKBKAP mRNA,[6],~1.5 fold
same,IKAP protein production,[7],increase in production of IKAP protein
same,cellular toxicity,[8],some cellular toxicity
same,"inclusion of exon 20, FD (MU) minigene construct",[9],enhanced inclusion of exon 20
same,"inclusion of exon 20, FD (MU) minigene construct",[9]; listed as Kinetin,enhances inclusion of exon 20
same,exon 20 skipping in WT construct transcripts (MU-specific PCR),[10]; MU-specific primer EX19/21F,completely corrected; also recorded: absence of MU transcript in the WT lane
same,"inclusion of exon 20, WT minigene construct",[10],enhanced inclusion of exon 20
same,"inclusion of exon 20, WT minigene construct",[10]; listed as Kinetin,enhances inclusion of exon 20
same,splicing of NF1 minigene,[11],altered splicing
same,effect on exon 7 of SMN2,[4],no effect on skipping of exon 7
same,cellular changes associated with in vitro aging of human skin cells,[12],delay or prevent a range of cellular changes
same,maximum in vitro life span of human skin cells,[12],did not alter
same,toxicity when administered orally to rats,[2],much less toxicity as compared to indoleacetic acid
"CC(=CCNc1ncnc2nc[nH]c12)CO [zeatin, 6-(4-hydroxy-3-methylbut-2-enylamino)purine, reference compound]",effect on WT:MU IKBKAP ratio,[1],neither zeatin nor 2iP (dissolved in DMSO at 10 mM) had any effect
